Measured values from US20120270744A1, “METHODS TO DETERMINE IF A SUBJECT WILL RESPOND TO A BCR-ABL INHIBITOR” (Oregon Health & Science University, priority 2007, published 2012).
Like-named read-outs stand apart in the source and are kept apart here.

What was measured:
CML CD34+ cells = experiment: Centrifugal adhesion assay to fibronectin with fluorescently labeled cells; type: cell-based, human
Source text: (FIG. 10A) Adhesion under the carious conditions. (FIG. 10B) Fold expansion of viable cells. (FIG. 10C) Recovery of CFU-GM.
To reliably quantify adherence we modified the McClay (1981 PNAS 78:4975-9) centrifugal adhesion assay, using fluorescently labeled cells.

[1] = system: patients with CML in chronic phase; conditions: cited from earlier work; for risk of progression to accelerated phase or blast crisis: at 5 years
[2] = system: newly diagnosed chronic phase CML patients; experiment: Cytogenetic response of validation set patients treated with imatinib; type: in vivo, human; conditions: within 12 months, 23 newly diagnosed chronic phase patients
[3] = system: Lin−/CD34+/CD38+ and Lin−/CD34+/CD38− CML cells; experiment: Culture of sorted primitive CML cells with imatinib: growth and viability; type: cell-based, human; conditions: 5 μM imatinib, physiological concentrations of cytokines
Method: FIGS. 9A-9C are a set of graphs dot plots and digital images of Western blots showing viable cells and phosphotyrosine content following treatment with a BCR-ABL inhibitor. […] (FIG. 9B) After 2 hours, immunoblot analysis of cellular extracts for Crkl phosphorylation was preformed. (FIG. 9C) Aliquots from the same cultures were analyzed by FACS analysis for total cellular phosphotyrosine content. Results were identical after 96 hours of culture.
A combination of lineage-depletion columns and high speed sorting was used to select highly pure populations of Lin−/CD34+/CD38+(enriched for progenitor cells) and Lin−/CD34+/[…] (enriched for stem cells). […] It was concludes that survival of primitive CML cells may not require BCR-ABL kinase activity, implicating BCR-ABL-independent extrinsic or intrinsic mechanisms in the maintenance of viability.

SMILES: Cc1ccc(NC(=O)c2ccc(CN3CCN(C)CC3)cc2)cc1Nc1nccc(-c2cccnc2)n1 [imatinib]
- spontaneous adhesion to fibronectin (CML CD34+ cells; imatinib 5 micoM, 96 hours culture): further reduced
- adhesion to fibronectin (CML CD34+ cells; imatinib in presence of beta1 integrin activating antibody B44): again reduced
- projected overall survival ([1]; 60 months of follow-up): 89%
- patients who progressed to accelerated phase or blast crisis ([1]; among those who lost response): 7%
- risk of progression to accelerated phase or blast crisis ([1]; patients in complete cytogenetic response after 12 months of therapy): 3%
- risk of progression to accelerated phase or blast crisis ([1]; patients with primary cytogenetic resistance): 19%
- patients with primary cytogenetic resistance (failed to attain a major cytogenetic response) ([1]; at 12 months): approximately 14%
- patients who lost their response ([1]; human, in vivo): approximately 16%
- cumulative rate of complete cytogenetic response (CCyR, 0% Ph+ metaphases) ([1]; newly diagnosed CML in chronic phase, imatinib as initial therapy, 60 months of follow-up): 87%
- patients who achieved CCyR [2]: 74%
- viability [3]: viability was maintained
- growth (total number of viable cells over time) ([3]; preliminary experiments N=4): reduced to approximately the level of normal cells
